Measured values as given in US9492454B2, “Use of pemirolast in the treatment of acute asthma” (RSPR PHARMA AB, priority 2014, dated 2016).
Entries after “also recorded” stand apart in the source; their conditions may differ. Read-outs that look alike come from different tables or passages of the source.

Tests used:
[1] = set-up: species or system Beagles (dog); details: dog, in vivo
Source text: There were no major differences in kinetics between males and females.

hERG potassium channel = hERG potassium channel (Homo sapiens, UniProt Q12809)
Experimental: This study was performed by PhysioStim, France, a GLP compliant facility.
The effects of pemirolast on hERG currents in HEK-293 cells stably expressing the hERG potassium channel were studied using patch-clamp technique.

[2] = Single and multiple-dose open safety, tolerability and pharmacokinetic study of pemirolast potassium tablets, with linear Cmax extrapolation; type: in vivo, human; details: linear extrapolation from 42.5 mg multiple dose
Experimental: This study comprised 18 healthy male subjects, 18-45 years of age, and was a single and multiple-dose, open study assessing the safety and tolerability of pemirolast potassium tablets (10 mg, Ulgixal™ tablets) with the doses 10, 30 and 50 mg (containing 8.5, 25.5 and 42.5 mg pemirolast free acid, respectively) b.i.d. (6 subjects in each dose group). The subjects received a single dose on the first day, then b.i.d. for three days and a single dose on the fifth day. The study was performed at the Berzelius Clinical Research Center AB in Linköping, Sweden. All laboratory pharmacokinetic analyses were performed by Quintiles AB, Uppsala, Sweden. Pharmacokinetic calculations were performed by Pharm Assist Sweden AB, Uppsala, Sweden. Mean Cmax data after multiple dosing are shown in and Table 1, and mean plasma concentrations over time on Day 5 are shown in FIG. 1. Based on these clinical data, Cmax predictions were made (assumption: Linear pharmacokinetics when extrapolating to higher dose levels) and are presented in Table 2.

[3] = Later pharmacokinetic studies in healthy volunteers (multiple doses); type: in vivo, human; details: 80, 200 and 320 mg b.i.d. for three and a half days
human bronchial tissue = experiment: Bronchodilatory effect on pre-contracted isolated human bronchi (myograph, isometric tension); type: cell-based; details: for effect on bronchoconstriction induced by carbachol: carbachol 3 μM; for effect on bronchoconstriction induced by histamine: histamine 1 μM
[4] = test system: asthma patients challenged with mannitol inhalation; experiment: Clinical trial: mannitol challenge test in asthma patients (PD15, FEV1, safety); type: in vivo, human; details: for long-term prophylactic effect on mannitol-induced asthma (mannitol PD15 at placebo visit): n=4
Experimental: This study comprised male and female asthma patients (18 to 46 years of age) with a positive asthma test (as determined by a mannitol challenge test (vide infra) performed within 15 days prior to enrolment at the first screening visit, Visit 1).
It was a double-blind, randomized, placebo-controlled, cross-over trial assessing the efficacy of orally administered single doses of placebo and 40 mg and 400 mg of pemirolast (immediate release tablets containing pemirolast sodium hemihydrate, as well as microcrystalline cellulose, mannitol, copovidone fine, croscarmellose sodium, anhydrous colloidal silica and magnesium stearate) in patients challenged with mannitol inhalation as described below.
The patients were exposed to the different treatments at three separate hospital visits at least 2 (mean 6.8, median 6) days apart. The data reported in FIGS. 5 and 6 below represent the patients that received placebo treatment at the first visit (n=8) or placebo at the second visit (after 40 mg at the first visit (n=4) or after 400 mg at the first visit (n=4)).
All doses were administered 3 hours before initiation of the mannitol challenge test to ensure peak plasma concentrations of pemirolast when the mannitol challenge was performed (blood samples for analysing plasma concentrations of pemirolast were collected 3 hours after drug administration).
There were 5 visits during the trial: A screening visit (Visit 1, within 15 days before Visit 2), three visits for treatment with Investigational Medicinal Products (IMP; pemirolast 40 or 400 mg, or placebo) (Visit 2-4, spaced at least 2 days apart), and a final follow-up visit by telephone (Visit 5, at least 2, but less than 4 days after Visit 4 and within 30 days of Visit 2).
The primary endpoint in the study was the Provocation Dose (PD) of mannitol resulting in a 15% fall in Forced Expiratory Volume during 1 second (FEV1; values given in Litres (L)) (PD15 for mannitol), which is recognised by regulatory authorities as an acceptable method to evaluate potential efficacy of asthma drugs (European Medicines Agency. Note for Guidance on Clinical Investigation of Medicinal Products for Treatment of Asthma, 2013).
The mannitol challenge test (Aridol®, Pharmaxis Ltd, Frenchs Forest, Sydney Australia) was performed as follows: application of nose clip and challenge with 0 (empty capsule acting as placebo), 5, 10, 20, 40, 80, 160, 160, 160 and 160 mg of mannitol via the Halermatic (the 80 and 160 mg doses were given as multiple doses of 40 mg capsules). After inhalation, subjects were instructed to hold their breath for 5 seconds.
At least 2 repeatable FEV1 manoeuvres were performed 60 seconds after each dose and the highest FEV1 was used in the calculation. […]

prostaglandin D2 = experiment: Urinary excretion of 11β-PGF2α (PGD2 metabolite, mast cell biomarker), EIA; type: in vivo, human; details: for baseline production of PGD2 in asthmatics without ongoing attacks: n=22-24
Experimental: A secondary endpoint in the study was to analyse changes in urinary excretion of a metabolite (11β-prostaglandin (PG) F2α) of the lung mast cell mediator/biomarker prostaglandin D2. 11β-PGF2α analysis was performed in unextracted urine samples using a validated enzyme immunoassays (EIA) kit from Cayman Chemical, Ann Arbor, Mich., USA (Item no 516521). Absolute values of the mediators were expressed as nanograms 11β-PGF2α per millimole creatinine.
• a) Withdrawal from trial visit criteria to be checked • b) Urine sampling for 11β-PGF2α analysis • c) Blood sampling for haematology and blood biochemistry • d) Vital signs, physical examination, adverse events and concomitant medication 2) Administration of IMP 3 hours (+/−10 min) before the mannitol challenge 3) Before mannitol challenge: • a) <10 min before: Urine sampling for 11β-PGF2α analysis • b) <10 min before: Blood sampling for analysis of plasma pemirolast concentration 4) Mannitol test 3 hours (+/−10 min) after IMP administration 5) After mannitol challenge: • a) Urine sampling for 11β-PGF2α, 30 minutes after mannitol challenge • b) Pregnancy test (Visit 4 only, in addition to prior to enrolment) • e) Recording of concomitant medication just before sending the patient home • f) Reporting of AEs just before sending the subject home
Prostaglandin D2 (PGD2) is released from mast cells (e.g. in the lung) and is known as a mediator of asthmatic bronchoconstriction (Hardy et al, N. Engl. J. Med., 311, 209 (1984)). Urinary levels of the PGD2 metabolite 11β-PGF2α increase acutely during asthmatic attacks, including those induced by mannitol inhalation (Brannan et al, Eur. Respir. J., 22, 491 (2003)). This PGD2 metabolite is therefore used as a biomarker for mast cell activation in asthmatics.

[5] = test system: antigen- and PAF-induced bronchoconstriction; details: pre-administration, guinea pigs in vivo; cited from earlier work
isolated tracheal muscle = details: isolated guinea pig tracheal muscle, cited from earlier work
[6] = test system: isolated guinea pig trachea; details: trachea pre-constricted with acetylcholine, histamine, serotonin and barium chloride; cited from earlier work
[7] = twice daily 50 mg doses in humans; cited from earlier work

Sequence of hERG potassium channel (Q12809 whole entry): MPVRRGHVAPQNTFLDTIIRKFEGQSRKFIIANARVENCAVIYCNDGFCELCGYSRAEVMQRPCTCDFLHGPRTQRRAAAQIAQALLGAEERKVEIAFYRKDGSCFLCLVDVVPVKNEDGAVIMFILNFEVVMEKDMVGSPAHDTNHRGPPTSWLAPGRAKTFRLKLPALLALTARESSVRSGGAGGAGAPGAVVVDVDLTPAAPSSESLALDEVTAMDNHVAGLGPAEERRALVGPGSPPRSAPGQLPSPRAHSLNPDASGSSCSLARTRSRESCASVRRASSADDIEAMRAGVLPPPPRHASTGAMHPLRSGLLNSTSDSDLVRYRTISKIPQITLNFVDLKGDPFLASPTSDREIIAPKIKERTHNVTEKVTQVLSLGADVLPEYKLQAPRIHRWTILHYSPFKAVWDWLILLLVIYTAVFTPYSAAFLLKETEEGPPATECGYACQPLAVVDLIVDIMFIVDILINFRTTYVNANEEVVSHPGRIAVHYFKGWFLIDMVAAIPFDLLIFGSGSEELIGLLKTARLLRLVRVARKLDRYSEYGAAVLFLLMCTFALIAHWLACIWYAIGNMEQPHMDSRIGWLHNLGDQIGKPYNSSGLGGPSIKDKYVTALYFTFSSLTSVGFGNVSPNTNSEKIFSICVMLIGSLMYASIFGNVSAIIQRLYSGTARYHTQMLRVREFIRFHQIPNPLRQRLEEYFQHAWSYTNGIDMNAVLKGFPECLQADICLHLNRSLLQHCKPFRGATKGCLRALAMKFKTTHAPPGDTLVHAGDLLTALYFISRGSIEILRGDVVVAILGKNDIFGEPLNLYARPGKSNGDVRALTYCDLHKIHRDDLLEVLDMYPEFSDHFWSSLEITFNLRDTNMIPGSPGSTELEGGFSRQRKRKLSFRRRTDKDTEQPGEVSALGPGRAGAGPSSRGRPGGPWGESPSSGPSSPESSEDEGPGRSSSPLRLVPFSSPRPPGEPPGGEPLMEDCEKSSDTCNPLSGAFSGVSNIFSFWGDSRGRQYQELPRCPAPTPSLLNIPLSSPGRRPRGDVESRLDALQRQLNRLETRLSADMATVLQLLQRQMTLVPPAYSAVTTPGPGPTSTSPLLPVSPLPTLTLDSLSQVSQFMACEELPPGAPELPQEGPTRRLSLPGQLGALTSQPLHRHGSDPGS

Cc1cccn2c(=O)c(-c3nnn[nH]3)cnc12 [pemirolast potassium]
safe chronic dose in dogs [1]: 75 mg/kg daily | decrease of hERG tail current amplitude (hERG potassium channel; 2.7 μg/mL): 5.4% | decrease of hERG tail current amplitude (hERG potassium channel; 8 μg/mL): 10.2% | decrease of hERG tail current amplitude (hERG potassium channel; 26.6 μg/mL): 14.1% | decrease of hERG tail current amplitude (hERG potassium channel; 79.9 μg/mL): 19.0%

Cc1cccn2c(=O)c(-c3nnn[nH]3)cnc12 [pemirolast]
Predicted Cmax ([2]; predicted for 125 mg): 10070 ng/mL | Predicted Cmax ([2]; predicted for 200 mg): 16120 ng/mL | Predicted Cmax ([2]; predicted for 400 mg): 32230 ng/mL | safety and tolerability [3]: safe and well-tolerated | effect on bronchoconstriction induced by U-46619 (human bronchial tissue; 10 μg/mL pemirolast, 100 nM U-46619, n=2): partially reversed | effect on bronchoconstriction induced by potassium chloride (human bronchial tissue; 10 μg/mL pemirolast, KCl 30 mM, n=2): no effect | effect on bronchoconstriction induced by carbachol (human bronchial tissue; 10 μg/mL pemirolast, n=4): no effect | effect on bronchoconstriction induced by histamine (human bronchial tissue; 10 μg/mL pemirolast, n=3): no effect | effect on bronchoconstriction induced by leukotriene D4 (human bronchial tissue; 10 μg/mL pemirolast, leukotriene D4 1 nM, n=3): no effect | reversal of PGF2α-induced bronchoconstriction (force) (human bronchial tissue; 10 μg/ml pemirolast, PGF2α 3 μM pre-contraction, within 15 min, n=4, vehicle 6.8±3.1%): 21.5±4.4% | reduction of PGF2α-induced bronchoconstriction (force) (human bronchial tissue; 110 μg/mL pemirolast (cumulative), PGF2α 3 μM pre-contraction, within 40 min, n=4, vehicle 18.6±4.9%): 72.0±12.6% | effect on bronchoconstriction induced by U-46619 (human bronchial tissue; 110 μg/mL pemirolast, 100 nM U-46619): partial reversal | effect on the response to KCl (human bronchial tissue; 110 μg/mL pemirolast, KCl 30 mM): little effect | effect on bronchoconstriction induced by carbachol (human bronchial tissue; 110 μg/mL pemirolast): partial reversal | effect on bronchoconstriction induced by histamine (human bronchial tissue; 110 μg/mL pemirolast): partial reversal | effect on the response to leukotriene D4 (human bronchial tissue; 110 μg/mL pemirolast, leukotriene D4 1 nM): little effect | mannitol PD15 ([4]; 3 hour pre-treatment, oral single dose (pemirolast sodium hemihydrate tablets), asthma patients): increased | long-term prophylactic effect on mannitol-induced asthma (mannitol PD15 at placebo visit) ([4]; placebo treatment preceded by 40 mg dose p.o.): not seen | long-term prophylactic effect on mannitol-induced asthma (mannitol PD15 at placebo visit) ([4]; single 400 mg dose p.o. given at least 3 days before placebo/mannitol): resulted in a prophylactic effect; also recorded: tolerated a much higher dose of mannitol | adverse events, vital signs, physical examination, haematology and blood biochemistry ([4]; single oral doses 40 mg and 400 mg, asthma patients): no serious adverse events | baseline production of PGD2 in asthmatics without ongoing attacks (prostaglandin D2; 3 hours after administration of 40 mg): not | baseline production of PGD2 in asthmatics without ongoing attacks (prostaglandin D2; 3 hours after administration of 400 mg): significantly reduced | urinary levels of the PGD2 biomarker (11β-PGF2α), 400 mg versus 40 mg previous treatment (prostaglandin D2; patients treated at least 3 days before with 40 mg or 400 mg, 4+4 patients): did not differ | PAF-induced bronchoconstriction [5]: inhibited | antigen-induced bronchoconstriction [5]: inhibited | effect on bronchoconstriction (isolated tracheal muscle; much higher concentrations than 10 μg/mL): some effect | effect on bronchoconstriction induced by PGF2α (isolated tracheal muscle; pre-treatment at 10 μg/mL): no effect | effect on bronchoconstriction induced by leukotriene D4 (isolated tracheal muscle; pre-treatment at 10 μg/mL): no effect | potency relative to theophylline [6]: one seventh | direct bronchodilator activity when used clinically [7]: no direct bronchodilator activity
